Laboratory results published in article PMC7285485, “Antifungal and Antibiofilm Activities and the Mechanism of Action of Repeating Lysine-Tryptophan Peptides against Candida albicans” (Microorganisms, 2020).
In brackets after ≈: the same amount, converted by molar mass. Like-named read-outs stand apart in the source and are kept apart here. Ends that are not written are not given here. Peptide text beside a SMILES is read from it.

Columns and labels:
red blood cells = details: ref [35], cited from earlier work; for Hemolysis: red blood cells, 200 µM peptide
Text: Furthermore, it maintained its antifungal activity in physiological salt concentrations and at low pH values.

[1] = system: C. albicans (CCARM 14001); experiment: microbe, parasite or virus in culture; type: cell-based, Candida albicans; details: fluconazole-resistant strain CCARM 14001, 24 to 30 h, 28 °C, read-out: Minimum Inhibitory Concentrations
C. rugosa = experiment: microbe, parasite or virus in culture; type: cell-based, Candida rugosa; details: read-out: Minimum inhibitory concentration
Method: (§1) The fungal strains C. albicans (KCTC 7270), C. catenulate (7642), C. intermidia (7234), C. rugosa (7324), C. glabrata (7219) and C. melibiosica (KCTC 7631) were cultured at 28 °C in appropriate media. Fungal cells (final concentration 2 × 10^4 cells/ mL) in 50 μL of YPD media (dextrose 2%, peptone 1% and yeast extract 0.5%) were seeded in each well of a microtiter plate containing 50 μL of two-fold serially diluted peptides in phosphate buffered saline. After incubation for 24 to 30 h at 28 °C, the lowest concentration of the peptides inhibiting the growth of the fungi was microscopically determined to be the minimum inhibitory concentrations (MICs). The effect of salt concentration on the antifungal activity of the peptides was tested by determining the MICs in the presence of NaCl and MgCl2. Fixed concentrations of NaCl (50, 100 and 150 mM) or MgCl2 (1, 2 and 5 mM) were added to the sodium phosphate buffer (pH 7.2). The effect of pH on the antifungal activity of the peptides was tested by determining peptide MICs in the presence of sodium phosphate buffer at a variety of pH values.

C. melibiosica = experiment: microbe, parasite or virus in culture; type: cell-based, Candida melibiosica; details: read-out: Minimum inhibitory concentration
Method: as §1

C. glabrata = experiment: microbe, parasite or virus in culture; type: cell-based, Candida glabrata; details: read-out: Minimum inhibitory concentration
Method: as §1

C. catenulate = experiment: microbe, parasite or virus in culture; type: cell-based, Candida catenulate; details: read-out: Minimum inhibitory concentration
Method: as §1

C. intermedia = experiment: microbe, parasite or virus in culture; type: cell-based, Candida intermedia; details: read-out: Minimum inhibitory concentration
Method: as §1

[2] = system: C. albicans (CCARM 14007); experiment: microbe, parasite or virus in culture; type: cell-based, Candida albicans; details: read-out: Minimum Inhibitory Concentrations
[3] = system: C. albicans (CCARM 140020); experiment: microbe, parasite or virus in culture; type: cell-based, Candida albicans; details: read-out: Minimum Inhibitory Concentrations
C. albicans (KCTC 7270) = experiment: microbe, parasite or virus in culture; type: cell-based, Candida albicans; details: YPD/PBS, 24 to 30 h, 28 °C, read-out: Minimum Inhibitory Concentrations
Method: as §1

[4] = system: RNA obtained from C. albicans; experiment: RNA gel retardation assay; type: binding, Candida albicans; details: Supplementary Figure S2
Method: Briefly, RNA was extracted from C. albicans using the TRI reagent (Molecular Research Center, Cincinnati, OH, USA) according to the manufacturer’s instructions. Purified RNA was collected and resuspended in RNAse-free water. Then, the yeast RNA (10 µg) was mixed with peptide at different concentrations, 2.5–30 µg in 15 µL of 10 mM Tris, 1 mM EDTA buffer (pH 8.0). After 10 min incubation at room temperature, the solution was subjected to electrophoresis on a 1% agarose gel in Tris Borate EDTA (TBE) buffer. Gel retardation was visualized under UV illumination using a Bio-Rad Gel Documentation system.

C. albicans [5] = experiment: SYTOX Green membrane permeabilization; type: cell-based, Candida albicans; details: 2 × 10^7 cells/mL, 1 µM SYTOX Green, followed for 120 min
Method: Membrane permeabilization of C. albicans was studied using the fluorescent dye SYTOX Green (Molecular Probes, Eugene, OR, USA). Fungal cells were grown to mid-logarithmic growth phase then centrifuged, washed and resuspended in PBS. Cells were suspended in PBS (2 × 10^7 cells/mL) and incubated with 1 µM SYTOX Green for 15 min in the dark prior to the influx assay. At 2–3 min after initiating data collection, 1/2× or 1× MIC peptides were added to the cell suspensions. Due to the binding of the dye to intracellular DNA, the increases in SYTOX Green fluorescence was measured for 120 min (excitation and emission wavelengths were 485 nm and 520 nm, respectively). Lysis of the cells in Triton X-100 (0.1%) or melittin gave maximum fluorescence.

[6] = system: HaCaT (human keratinocyte) cells; experiment: Cytotoxicity, MTT assay; type: cell-based; details: 24 h
Method: We examined the cytotoxic effects of the peptides using HaCaT (human keratinocyte) cells, which were cultured in Dulbecco’s modified Eagle medium (DMEM) supplemented with antibiotics (100 U/mL penicillin, 100 µg/mL streptomycin) and 10% fetal calf serum at 37 °C in a humidified chamber with atmosphere containing 5% CO2. To measure viable cells and growth inhibition, an MTT colorimetric assay was used. A total of 4 × 10^3 cells was seeded per well into a 96-well plate incubated at 37 °C for 24 h. The next day, cells from plates were treated with various concentrations of the tested peptides. After 24 h incubation at 37 °C, MTT (10 μL) was added at a concentration of 5 mg/mL to each well. The culture supernatants were discarded after a further 4 h, and the remaining precipitate was dissolved by the addition of 100 μL of DMSO into the wells. Absorbance was then measured at a wavelength of 570 nm using an EL800 reader (Bio-Tek instruments, Inc., Winooski, VT, USA).

[7] = Calcein leakage from eukaryotic membrane mimetic liposomes; details: 2.5 μM lipid, peptide 0.0–0.25 μΜ, 25 min, 25 °C; 100% = 0.1% Triton X-100
Method: (§2) Calcein-entrapped LUVs composed of PE–PC–PI–ergosterol (5:4:1:2, w/w/w/w) or PC–CH–SM (1:1:1, w/w/w) were prepared by mixing the dried lipid in buffer solution (containing 70 mM calcein, PBS, pH 7.4). The suspension was freeze-thawed in liquid nitrogen for nine cycles and then extruded through two stacked […] pore-size polycarbonate filters for 16 times using an Avanti Mini-Extruder (Avanti Polar Lipids Inc., Alabaster, AL, USA). Vesicles containing entrapped calcein were separated from free calcein by gel filtration chromatography on a Sephadex G-50 column. Entrapped LUVs in a suspension containing 2.5 μM lipids were then incubated with various concentrations of the peptide (0.0–0.25 μΜ) for 25 min. The release of calcein fluorescence was followed using a spectrofluorometer (Perkin-Elmer LS55, Mid Glamorgan, UK) with appropriate wavelengths (excitation, 480 nm; and emission, 520 nm). […] Spontaneous leakage was determined to be negligible on this timescale. […] The percentage of calcein release was calculated according to the following equation [41]:Release (%) = 100 × (F − Fo)/(Ft − Fo) (Ex. 480 nm and Em. 520 nm)(1) where F represent the fluorescence intensity before the addition of the detergent, Ft represents the fluorescence intensity after the addition of the detergent and Fo represents the fluorescence of the intact vesicles.

C. albicans [8] = experiment: Fluorescence microscopy of PI cell permeabilization; type: cell-based, Candida albicans; details: 8 μM KW4 or 4 μM melittin, 10, 20 and 30 min, 28 °C
Method: The cell permeability was monitored using the DNA-staining fluorescent probe PI as previously described. For this experiment, C. albicans cells were grown in YPD broth with shaking at 200 rpm overnight at 28 °C. Cells were harvested by centrifugation (4000 rpm for 10 min), washed and suspended in PBS to yield 2 × 10^6 cells/mL; 100 μL of C. albicans suspensions (2 × 10^6 cells/mL) were incubated with 5 μL from respective peptide aqueous stock solutions to yield a final peptide concentration of 8 μM KW4 peptide or 4 μM melittin (as a control peptide) for 10, 20 and 30 min at 28 °C. Next, PI was added to each sample at a final concentration of 1 μg/mL and the plate was incubated at 28 °C for 5 min. The effects of the peptides on C. albicans were visualized by the EVOS FL Auto 2 imaging system (Invitrogen, Waltham, MA, USA). Cells without added peptide served as a control.

[9] = Calcein leakage from fungal membrane mimetic liposomes; details: 2.5 μM lipid, peptide 0.0–0.25 μΜ, 25 min, 25 °C; 100% = 0.1% Triton X-100; highest P/L ratio tested
Method: as §2

KWKWKW-NH2 [KW3, KWKWKW-NH2]
Hemolysis (red blood cells): 0% | MIC [1]: >128 µM | MIC (C. rugosa): 32 µM | MIC (C. melibiosica): 32 µM | MIC (C. glabrata): 32 µM | MIC (C. catenulate): 16 µM | MIC (C. intermedia): 32 µM

KWKWKWKW-NH2 [KW4]
Hemolysis (red blood cells): 8% | Hemolytic activity (red blood cells): no hemolytic activity | MIC ([2]; CCARM 14007): 32 µM | MIC [1]: 32 µM | MIC (C. rugosa): 8 µM | MIC (C. melibiosica): 8 µM | MIC (C. glabrata): 8 µM | MIC ([3]; CCARM 140020): 32 µM | MIC (C. catenulate): 8 µM | MIC (C. intermedia): 8 µM

OC(Cn1cncn1)(Cn1cncn1)c1ccc(F)cc1F [Fluconazole, fluconazole, reference compound]
MIC ([2]; Candida albicans, CCARM14007, fluconazole-resistant strain CCARM 14007, 24 to 30 h, 28 °C): > 128 µM | MIC ([1]; Candida albicans, CCARM14001): > 128 µM | MIC (C. rugosa; Diutina rugosa, C. rugosa): 16 µM | MIC (C. melibiosica; Helenozyma melibiosica, C. melibiosica): 16 µM | MIC (C. glabrata; Nakaseomyces glabratus, C. glabrata): 8 µM | MIC ([3]; Candida albicans, CCARM140020, fluconazole-resistant strain CCARM 140020, 24 to 30 h, 28 °C): > 128 µM | MIC (C. catenulate; Candida, C. catenulate): 16 µM | MIC (C. albicans (KCTC 7270); Candida albicans, KCTC7270, 2 × 10^4 cells/mL): 16 µM | MIC (C. intermedia; Sungouiella intermedia, C. intermedia): 16 µM

indolicidin (ILPWKWPWWPWRR; ends and bridges not checked; UniProt P33046 131-143, looked up) [AMP which can act intracellularly]
RNA band shift in gel retardation [4]: did cause a similar band shift

CC[C@H](C)[C@H](NC(=O)CN)C(=O)NCC(=O)N[C@@H](C)C(=O)N[C@H](C(=O)N[C@@H](CC(C)C)C(=O)N[C@@H](CCCCN)C(=O)N[C@H](C(=O)N[C@@H](CC(C)C)C(=O)N[C@H](C(=O)N[C@H](C(=O)NCC(=O)N[C@@H](CC(C)C)C(=O)N1CCC[C@H]1C(=O)N[C@@H](C)C(=O)N[C@@H](CC(C)C)C(=O)N[C@H](C(=O)N[C@@H](CO)C(=O)N[C@@H](Cc1c[nH]c2ccccc12)C(=O)N[C@H](C(=O)N[C@@H](CCCCN)C(=O)N[C@@H](CCCNC(=N)N)C(=O)N[C@@H](CCCCN)C(=O)N[C@@H](CCCNC(=N)N)C(=O)N[C@@H](CCC(N)=O)C(=O)N[C@@H](CCC(N)=O)C(N)=O)[C@@H](C)CC)[C@@H](C)CC)[C@@H](C)O)[C@@H](C)O)C(C)C)C(C)C [Melittin, melittin, reference compound]
MIC ([2]; fluconazole-resistant strain CCARM 14007, 24 to 30 h, 28 °C): 8 µM (≈ 22.8 µg/mL) | MIC [1]: 16 µM (≈ 45.5 µg/mL) | MIC (C. rugosa; C. rugosa): 8 µM | MIC (C. melibiosica; C. melibiosica): 8 µM | Time to complete membrane permeabilization (SYTOX green) (C. albicans [5]): ≤ 35 min | MIC (C. glabrata; C. glabrata): 4 µM | Cytotoxicity against HaCaT cells ([6]; 12.5 μM): 100% | Cell survival ([6]; HaCaT cells, 200 µM peptide): 0% | Calcein leakage from PC–CH–SM liposomes [7]: 90% | PI uptake seen by fluorescence microscopy (C. albicans [8]): allowed the uptake of PI | MIC ([3]; fluconazole-resistant strain CCARM 140020, 24 to 30 h, 28 °C): 8 µM (≈ 22.8 µg/mL) | Calcein leakage from PE–PC–PI–ergosterol liposomes [9]: 80% | MIC (C. catenulate; C. catenulate): 8 µM | MIC (C. albicans (KCTC 7270); 2 × 10^4 cells/mL): 4 µM | MIC (C. intermedia; C. intermedia): 8 µM

KWKWKWKWKW-NH2 [KW5]
Hemolysis (red blood cells): 71% | MIC ([2]; CCARM 14007): 16 µM | MIC [1]: 8 µM | MIC (C. rugosa): 8 µM | MIC (C. melibiosica): 8 µM | MIC (C. glabrata): 4 µM | MIC ([3]; CCARM 140020): 8 µM | MIC (C. catenulate): 8 µM | MIC (C. intermedia): 8 µM

NCCCC[C@H](NC(=O)[C@H](Cc1c[nH]c2ccccc12)NC(=O)[C@@H](N)CCCCN)C(=O)N[C@@H](Cc1c[nH]c2ccccc12)C(N)=O [KW2, KWKW-NH2] (H-KWKW-NH2)
Hemolysis (red blood cells): 0% | MIC [1]: >128 µM | MIC (C. rugosa): > 128 µM | MIC (C. melibiosica): > 128 µM | MIC (C. glabrata): > 128 µM | MIC (C. catenulate): > 128 µM | MIC (C. intermedia): > 128 µM

magainin II
RNA band shift in gel retardation [4]: did not cause a band shift
